# Values quoted from earlier work, collected in US10350288B2, “Methods and compositions for treating herpes” (Genocea Biosciences, Inc., priority 2016, dated 2019).
# Where two headings read alike, the source gives them in different places.
# What was measured:
# HSV-2 [1] = system: HSV-2
# HSV-2 [2] = conditions: human, in vivo
# HSV [3] = conditions: patients with genital herpes
# HSV [4] = conditions: once-daily; efficacy comparable to valacyclovir twice daily for 3 days
smiles,measurement,setting,value
CC(C)[C@H](N)C(=O)OCCOCn1cnc2c(=O)[nH]c(N)nc21 [valacyclovir],proportion of patients who remained recurrence-free,"HSV-2 [1]; at 6 months, placebo 7%",55%
same,proportion of patients who remained recurrence-free,"HSV-2 [1]; at 12 months, placebo 4%",34%
same,reduction of transmission of HSV-2 from infected persons to uninfected partners,HSV-2 [2],48%
"Cc1nc(N(C)C(=O)Cc2ccc(-c3ccccn3)cc2)sc1S(N)(=O)=O [Pritelivir, pritelivir]",reduction of viral shedding and lesion rate,HSV [3],has shown efficacy
Cc1cccc(C)c1N(CC(=O)Nc1ccc(-c2ncon2)cc1)C(=O)C1CCS(=O)(=O)CC1 [amenamevir],time to lesion healing shortened by,HSV [4],1 to 2 days
"Nc1nc2c(ncn2CCC(CO)CO)c(=O)[nH]1 [Penciclovir, penciclovir]",oral bioavailability,,not orally bioavailable
